Among the test systems are 786-0 renal; BT-549 breast; EKVX NSCLC; KM12 colon; M14 melanoma; MDA-MB-435; NCI-H226 lung; SF-539 CNS; MALME-3M melanoma; NCI/ADR-RES ovarian.
Holding throughout (assay): inhibition of tumour cell growth, NCI panel, 48 h

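Method: 48-hour compound exposure of cells in 96-well plates, five concentrations, linear interpolation of endpoints. The concentration for 50% growth inhibition is given as GI50. TGI is the concentration that stops growth completely.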 Peptide text beside a SMILES is read from it. * marks the point of attachment. X26 = Clc1c(Cl)c(Cl)c(O*)c(Cl)c1Cl; Boc = CC(C)(C)OC(=O)*; OBn = c1ccc(CO*)cc1; Bn = c1ccc(C*)cc1

For `CCCCCCc1cc2cc(-c3csc(-c4ccc(OC)cc4)n3)c(=O)oc2cc1O`, the TGI in the assay on 786-0 renal came out at 18 µM; in the assay on BT-549 breast it was 7.38 µM; with EKVX NSCLC it was 45.1 µM; in the assay on KM12 colon it was 68.2 µM; with M14 melanoma it was 27.5 µM; in the assay with MDA-MB-435 it was 18.4 µM. Further, the TGI turned out to be 30.6 µM with NCI-H226 lung and 25.6 µM in the assay with SF-539 CNS.

Regarding `Oc1c(OCc2nnc(CCCCCCCCc3nnc(COc4ccc5ccccc5c4O)o3)o2)ccc2ccccc12`, the TGI in the assay with 786-0 renal is 50.8 µM; in the assay on BT-549 breast, more than 100 µM; in the assay with EKVX NSCLC it was more than 100 µM; with KM12 colon, more than 100 µM; in the assay on M14 melanoma, more than 100 µM; in the assay on MALME-3M melanoma, more than 100 µM. In addition, the TGI in the assay on MDA-MB-435, with NCI-H226 lung and with NCI/ADR-RES ovarian was more than 100 µM in each case.

Consider `COc1ccc(C2=C(Cl)C(=O)O/C2=C\c2ccc(OC)c(Br)c2)cc1Cl`, for which the TGI is 39.1 µM with 786-0 renal; 90.8 µM in the assay with EKVX NSCLC; more than 100 µM in the assay with KM12 colon; more than 100 µM in the assay on M14 melanoma; more than 100 µM with MALME-3M melanoma; more than 100 µM with MDA-MB-435. Also, the results for the TGI in the assay with NCI/ADR-RES ovarian and in the assay on SF-539 CNS were 88.6 µM and 30.6 µM, respectively.

As for `Clc1cc(C(c2cc(Cl)sc2Cl)c2cc(Cl)sc2Cl)c(Cl)s1`, the TGI in the assay on 786-0 renal, with EKVX NSCLC, with KM12 colon, with M14 melanoma, in the assay with MALME-3M melanoma and with MDA-MB-435 was more than 100 µM throughout. Also, the TGI in the assay with NCI-H226 lung, with NCI/ADR-RES ovarian and in the assay with SF-539 CNS was more than 100 µM in each case.

Regarding `O=P(OCc1ccccc1)(OCc1ccccc1)C(O)/C=C/c1ccccc1` (stereo not drawn), the TGI stood at 39.5 µM in the assay with 786-0 renal; 71.2 µM in the assay on BT-549 breast; 95.6 µM with EKVX NSCLC; 43.1 µM with KM12 colon; 37 µM in the assay on M14 melanoma; 38.2 µM in the assay with MALME-3M melanoma. For the same molecule, the values for the TGI in the assay on MDA-MB-435, in the assay on NCI-H226 lung and with NCI/ADR-RES ovarian were 35.1 µM, 78.3 µM and 62.9 µM, respectively.

With `NCCN(CCN(C(=O)Nc1ccccc1)c1ccccc1)C(=O)Nc1ccccc1`, the TGI is 55.4 µM in the assay with 786-0 renal; 69.4 µM in the assay with BT-549 breast; 67.3 µM with EKVX NSCLC; 53.4 µM with M14 melanoma; 34.2 µM with MALME-3M melanoma; 98.6 µM in the assay on NCI-H226 lung. Besides, the TGI in the assay on NCI/ADR-RES ovarian was more than 100 µM.

For `C[C@H](c1ccccc1)N1C(=O)[C@@H](OCc2ccccc2)[C@H]1[C@H](COC(=O)COCc1ccccc1)OCc1ccccc1`, the TGI with 786-0 renal is more than 100 µM; in the assay on EKVX NSCLC, more than 100 µM; in the assay with KM12 colon, more than 100 µM; in the assay with M14 melanoma, more than 100 µM; with MALME-3M melanoma it was 76.7 µM; in the assay with MDA-MB-435, more than 100 µM. For the same molecule, the TGI in the assay with NCI-H226 lung worked out at 89.4 µM.

For the molecule `O=P1(C(O)/C=C/c2ccccc2)N(Cc2ccccc2)[C@@H]2CCCC[C@H]2N1Cc1ccccc1` (stereo partly drawn), the TGI in the assay on 786-0 renal stood at 18.8 µM; with BT-549 breast it was 34.2 µM; in the assay on EKVX NSCLC it was 35.9 µM; in the assay on KM12 colon, 19.5 µM; in the assay with M14 melanoma, 19.8 µM; in the assay on MALME-3M melanoma, 8.45 µM. The TGI with MDA-MB-435 stood at 15.1 µM; in the assay with NCI-H226 lung, 17.2 µM; with NCI/ADR-RES ovarian, 51.6 µM.

With `CCN(CCCCCCCCCCN1CC(=O)N(CCCCCCCCCCN(CC)Cc2ccccc2OC)CC1=O)Cc1ccccc1OC`, the GI50 in the assay on EKVX NSCLC was 1820 nM; with KM12 colon it was 1030 nM; with MALME-3M melanoma it was 1640 nM; in the assay with MDA-MB-435 it was 1310 nM; in the assay on NCI-H226 lung, 1960 nM; in the assay on NCI/ADR-RES ovarian it was 1640 nM. Further, in the assay on SF-539 CNS, the GI50 is 1580 nM. Moreover, the TGI in the assay with EKVX NSCLC amounted to 8.14 µM; in the assay with KM12 colon it was 2.24 µM; in the assay with MALME-3M melanoma, 3.47 µM; in the assay with MDA-MB-435, 2.96 µM; in the assay with NCI-H226 lung it was 3.94 µM; with NCI/ADR-RES ovarian, 3.24 µM. The molecule further yielded a TGI in the assay on SF-539 CNS of 3.33 µM.

On to `Cc1cn(CCCCCOC(=O)NC(CCCNC(N)=O)C(=O)O)c(=O)[nH]c1=O` (stereo not drawn), for which the TGI in the assay on 786-0 renal, in the assay on BT-549 breast, in the assay on EKVX NSCLC, in the assay with KM12 colon, with M14 melanoma and in the assay on MDA-MB-435 was more than 100 µM in each case. The TGI in the assay with NCI-H226 lung, in the assay on NCI/ADR-RES ovarian and in the assay on SF-539 CNS was more than 100 µM in each case.

In the case of `CC1CCc2sc3nc4n(c(=O)c3c2C1)CC(C)S4` (stereo not drawn), the TGI with 786-0 renal is 65.6 µM; in the assay on BT-549 breast, more than 100 µM; in the assay with EKVX NSCLC, 70.4 µM; with KM12 colon it was more than 100 µM; in the assay on M14 melanoma it was 51.8 µM; in the assay on MALME-3M melanoma, 65.8 µM. In addition, the TGI in the assay with MDA-MB-435 was more than 100 µM; in the assay on NCI-H226 lung, 63.8 µM; with NCI/ADR-RES ovarian, more than 100 µM.

For `CC(C)CC(NC(=O)C(CCC(=O)OCc1ccccc1)NC(=O)OC(C)(C)C)C(=O)NC(COCc1ccccc1)C(=O)NC(Cc1ccccc1)C(=O)Oc1c(Cl)c(Cl)c(Cl)c(Cl)c1Cl` (stereo not drawn) (Boc-E(OBn)LS(Bn)F-X26; configuration not given here), the TGI in the assay with 786-0 renal was determined as 90.7 µM; in the assay with EKVX NSCLC it was 96.2 µM; in the assay with KM12 colon it was 47.1 µM; in the assay on M14 melanoma it was 78 µM; in the assay with MALME-3M melanoma, 91.5 µM; in the assay on MDA-MB-435, 95.3 µM. The molecule further showed a TGI in the assay with NCI/ADR-RES ovarian of 86.8 µM.

Consider `C=C(C)[C@H]1CC(=O)/C(C)=C\CC/C(C)=C/CC[C@@]2(C)O[C@@H]2C1`, for which the TGI in the assay on 786-0 renal is more than 100 µM; with BT-549 breast, more than 100 µM; in the assay on KM12 colon it was 44.3 µM; in the assay with M14 melanoma, more than 100 µM; in the assay on MALME-3M melanoma, 88.7 µM; in the assay on MDA-MB-435 it was 35 µM. Also, the TGI in the assay with NCI/ADR-RES ovarian was found to be 56 µM; with SF-539 CNS it was 42.2 µM.

On to `CC(=O)OC1CC2(O)C(CCC3(C)C(c4ccc(=O)oc4)CCC32O)C2(C)C1=CC(O)C1OC12` (stereo not drawn), for which the TGI in the assay on EKVX NSCLC was found to be 0.157 µM; with KM12 colon it was 0.301 µM; with MALME-3M melanoma, 0.13 µM; in the assay on NCI-H226 lung, 0.643 µM; in the assay with NCI/ADR-RES ovarian it was 0.284 µM; with SF-539 CNS, 0.116 µM.

`CCOc1snc(C(Cl)(Cl)Cl)c1Cl`: the TGI with 786-0 renal is more than 100 µM; in the assay on BT-549 breast it was 70.6 µM; with EKVX NSCLC, 79.4 µM; with KM12 colon it was 56.7 µM; in the assay with M14 melanoma it was more than 100 µM; in the assay on MALME-3M melanoma it was 80.2 µM. For the same molecule, the TGI was more than 100 µM with MDA-MB-435, 32.5 µM in the assay on NCI-H226 lung and more than 100 µM with SF-539 CNS.

(Values after PubChem BioAssay (NCI).)
